Laboratory results: patent US8372843B2, “Quinolines useful as modulators of ION channels” (Vertex Pharmaceuticals Incorporated, priority 2005, dated 2013)
Like-named read-outs stand apart in the source and are kept apart here.

Legend:
NaV1.8 [1] = target: T1, NaV1.8 (Homo sapiens, UniProt Q9Y5Y9); experiment: Activity against NaV1.8 channel (Table 4); format: cell-based
Experimental: Compounds of the invention are useful as antagonists of voltage-gated sodium ion channels. Antagonist properties of test compounds were assessed as follows. Cells expressing the NaV of interest were placed into microtiter plates. After an incubation period, the cells were stained with fluorescent dyes sensitive to the transmembrane potential. The test compounds were added to the microtiter plate. The cells were stimulated with either a chemical or electrical means to evoke a NaV dependent membrane potential change from unblocked channels, which was detected and measured with trans-membrane potential-sensitive dyes. Antagonists were detected as a decreased membrane potential response to the stimulus. The optical membrane potential assay utilized voltage-sensitive FRET sensors described by Gonzalez and Tsien (See, Gonzalez, J. E. and R. Y. Tsien (1995) “Voltage sensing by fluorescence resonance energy transfer in single cells” Biophys J 69(4): 1272-80, and Gonzalez, J. E. and R. Y. Tsien (1997) “Improved indicators of cell membrane potential that use fluorescence resonance energy transfer” Chem Biol 4(4): 269-77) in combination with instrumentation for measuring fluorescence changes such as the Voltage/Ion Probe Reader (VIPR®) (See, Gonzalez, J. E., K. Oades, et al. (1999) “Cell-based assays and instrumentation for screening ion-channel targets” Drug Discov Today 4(9): 431-439). B) VIPR® optical membrane potential assay method with chemical stimulation
24 hours before the assay on VIPR, CHO cells endogenously expressing a NaV1.2 type voltage-gated NaV are seeded in 96-well poly-lysine coated plates at 60,000 cells per well. […] The cells are then incubated for 20-30 minutes. • 7) Once the incubation is complete, the cells are ready to be assayed on VIPR® with a sodium addback protocol. […]
The following is an example of how NaV1.3 inhibition activity is measured using the optical membrane potential method#2. […]

neuropathic pain = details: in vivo; cited from earlier work
NaV1.3 = NaV1.3 (Homo sapiens, UniProt Q9NY46); details: read-out: TTX IC50; cited from earlier work
NaV1.8 [2] = target: T1, NaV1.8; details: read-out: TTX IC50; cited from earlier work
NaV1.6 = NaV1.6 (Homo sapiens, UniProt Q9UQD0); details: read-out: TTX IC50; cited from earlier work
NaV1.1 = NaV1.1 (Homo sapiens, UniProt P35498); details: read-out: TTX IC50; cited from earlier work
NaV1.9 = NaV1.9 (Homo sapiens, UniProt Q9UI33); details: read-out: TTX IC50; cited from earlier work
NaV1.2 = NaV1.2 (Homo sapiens, UniProt Q99250); details: read-out: TTX IC50; cited from earlier work

Chain of NaV1.9 (Q9UI33 whole entry, looked up): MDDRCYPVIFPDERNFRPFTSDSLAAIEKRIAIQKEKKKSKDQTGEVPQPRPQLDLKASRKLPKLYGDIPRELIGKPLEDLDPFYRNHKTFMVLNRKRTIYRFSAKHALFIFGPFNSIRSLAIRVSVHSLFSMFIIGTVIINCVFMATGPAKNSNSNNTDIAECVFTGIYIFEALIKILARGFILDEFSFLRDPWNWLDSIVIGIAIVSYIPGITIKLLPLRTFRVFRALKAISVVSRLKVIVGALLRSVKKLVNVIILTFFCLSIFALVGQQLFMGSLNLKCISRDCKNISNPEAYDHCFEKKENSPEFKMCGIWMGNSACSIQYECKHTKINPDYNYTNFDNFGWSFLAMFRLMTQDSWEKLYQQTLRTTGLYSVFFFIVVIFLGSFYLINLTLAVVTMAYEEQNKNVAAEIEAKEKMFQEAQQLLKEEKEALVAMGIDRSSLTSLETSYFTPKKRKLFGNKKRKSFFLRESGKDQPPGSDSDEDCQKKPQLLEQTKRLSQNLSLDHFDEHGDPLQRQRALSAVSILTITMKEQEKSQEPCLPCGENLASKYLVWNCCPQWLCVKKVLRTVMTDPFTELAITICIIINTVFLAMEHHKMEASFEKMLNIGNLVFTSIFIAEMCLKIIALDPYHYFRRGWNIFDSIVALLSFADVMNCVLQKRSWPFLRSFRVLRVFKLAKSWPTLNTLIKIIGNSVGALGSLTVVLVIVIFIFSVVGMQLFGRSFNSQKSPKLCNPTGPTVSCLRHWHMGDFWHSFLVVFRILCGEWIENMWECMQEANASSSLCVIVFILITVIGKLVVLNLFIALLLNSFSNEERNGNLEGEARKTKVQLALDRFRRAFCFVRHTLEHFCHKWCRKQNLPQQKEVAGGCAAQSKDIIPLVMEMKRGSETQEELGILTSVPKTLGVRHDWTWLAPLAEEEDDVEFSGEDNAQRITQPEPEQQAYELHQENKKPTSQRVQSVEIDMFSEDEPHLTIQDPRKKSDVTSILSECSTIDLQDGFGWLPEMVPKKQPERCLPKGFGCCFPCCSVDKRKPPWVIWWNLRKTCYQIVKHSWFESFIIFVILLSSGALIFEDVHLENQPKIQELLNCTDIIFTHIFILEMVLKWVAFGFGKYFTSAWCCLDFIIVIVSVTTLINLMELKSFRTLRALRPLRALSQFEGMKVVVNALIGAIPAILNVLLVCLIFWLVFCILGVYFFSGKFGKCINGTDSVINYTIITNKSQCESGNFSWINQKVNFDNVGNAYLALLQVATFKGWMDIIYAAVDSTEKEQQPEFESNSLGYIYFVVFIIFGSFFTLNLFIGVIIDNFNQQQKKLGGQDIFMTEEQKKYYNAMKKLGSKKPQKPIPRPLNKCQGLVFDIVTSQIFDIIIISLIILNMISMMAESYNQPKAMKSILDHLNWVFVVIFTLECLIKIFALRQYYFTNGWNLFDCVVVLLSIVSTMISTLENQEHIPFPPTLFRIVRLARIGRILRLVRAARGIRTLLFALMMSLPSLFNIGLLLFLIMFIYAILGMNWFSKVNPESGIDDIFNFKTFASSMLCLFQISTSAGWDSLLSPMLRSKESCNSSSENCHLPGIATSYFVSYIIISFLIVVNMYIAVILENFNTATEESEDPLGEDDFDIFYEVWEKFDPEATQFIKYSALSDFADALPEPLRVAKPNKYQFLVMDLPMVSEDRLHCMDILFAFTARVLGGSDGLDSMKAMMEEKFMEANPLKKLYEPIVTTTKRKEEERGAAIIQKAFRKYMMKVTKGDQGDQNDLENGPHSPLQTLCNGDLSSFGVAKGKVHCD
T1 sequence (Q9Y5Y9 whole entry, looked up): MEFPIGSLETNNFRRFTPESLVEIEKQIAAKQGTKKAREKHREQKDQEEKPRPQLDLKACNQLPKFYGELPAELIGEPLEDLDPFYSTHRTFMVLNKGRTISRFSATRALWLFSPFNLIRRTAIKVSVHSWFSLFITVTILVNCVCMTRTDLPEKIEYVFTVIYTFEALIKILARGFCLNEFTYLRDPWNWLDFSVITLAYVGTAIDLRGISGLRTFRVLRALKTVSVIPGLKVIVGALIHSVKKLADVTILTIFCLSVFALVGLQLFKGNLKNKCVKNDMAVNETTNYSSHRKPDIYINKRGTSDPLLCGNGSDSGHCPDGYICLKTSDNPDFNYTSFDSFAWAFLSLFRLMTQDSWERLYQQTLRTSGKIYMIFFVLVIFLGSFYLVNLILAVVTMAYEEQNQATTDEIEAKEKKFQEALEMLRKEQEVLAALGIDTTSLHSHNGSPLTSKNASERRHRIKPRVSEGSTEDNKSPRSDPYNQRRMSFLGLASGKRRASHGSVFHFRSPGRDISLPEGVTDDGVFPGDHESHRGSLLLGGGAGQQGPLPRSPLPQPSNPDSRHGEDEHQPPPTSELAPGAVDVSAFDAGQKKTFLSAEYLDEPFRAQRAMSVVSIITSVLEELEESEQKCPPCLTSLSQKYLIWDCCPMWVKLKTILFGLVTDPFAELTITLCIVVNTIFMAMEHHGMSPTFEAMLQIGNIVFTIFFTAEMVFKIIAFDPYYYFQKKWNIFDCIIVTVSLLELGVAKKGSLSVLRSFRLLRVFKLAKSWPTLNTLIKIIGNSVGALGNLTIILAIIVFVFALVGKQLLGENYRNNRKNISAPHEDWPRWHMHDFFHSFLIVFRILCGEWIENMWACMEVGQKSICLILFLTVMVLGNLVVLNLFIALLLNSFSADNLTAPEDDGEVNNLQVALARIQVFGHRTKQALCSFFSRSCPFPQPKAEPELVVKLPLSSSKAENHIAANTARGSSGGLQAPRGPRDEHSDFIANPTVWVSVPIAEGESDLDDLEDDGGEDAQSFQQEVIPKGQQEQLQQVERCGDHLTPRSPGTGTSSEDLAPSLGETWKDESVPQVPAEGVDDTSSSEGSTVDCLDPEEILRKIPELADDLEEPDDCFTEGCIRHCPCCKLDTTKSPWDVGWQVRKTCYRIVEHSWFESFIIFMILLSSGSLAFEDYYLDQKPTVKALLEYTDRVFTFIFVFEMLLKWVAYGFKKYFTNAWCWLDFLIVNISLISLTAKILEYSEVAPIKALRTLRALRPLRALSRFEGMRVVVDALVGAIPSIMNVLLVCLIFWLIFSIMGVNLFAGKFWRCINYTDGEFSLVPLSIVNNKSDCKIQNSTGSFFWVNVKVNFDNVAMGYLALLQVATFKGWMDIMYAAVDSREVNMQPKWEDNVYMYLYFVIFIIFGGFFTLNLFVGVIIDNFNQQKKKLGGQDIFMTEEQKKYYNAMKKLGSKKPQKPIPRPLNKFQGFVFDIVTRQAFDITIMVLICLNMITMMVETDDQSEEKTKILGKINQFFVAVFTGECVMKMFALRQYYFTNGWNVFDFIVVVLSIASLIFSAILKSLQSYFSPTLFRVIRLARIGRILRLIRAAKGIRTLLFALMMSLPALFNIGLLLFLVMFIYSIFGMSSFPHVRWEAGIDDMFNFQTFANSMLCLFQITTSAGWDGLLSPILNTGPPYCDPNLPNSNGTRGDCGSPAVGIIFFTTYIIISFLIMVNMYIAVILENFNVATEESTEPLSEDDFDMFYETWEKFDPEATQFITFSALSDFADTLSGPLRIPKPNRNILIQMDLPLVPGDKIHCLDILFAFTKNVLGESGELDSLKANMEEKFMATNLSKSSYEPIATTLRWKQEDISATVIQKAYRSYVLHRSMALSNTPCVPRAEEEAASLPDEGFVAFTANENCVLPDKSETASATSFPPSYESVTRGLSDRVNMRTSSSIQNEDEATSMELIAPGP

`CC(C)COC(=O)NC1CCN(c2nc(-c3ccccc3O)cc3ccccc23)CC1` [Compound 1, Isobutyl 1-(3-(2-hydroxyphenyl)isoquinolin-1-yl)piperidin-4-ylcarbamate] gave an IC50 (NaV1.8 [1]) of 10000 to 15000 nM.
`CC(C)COC(=O)N1CCN(c2nc(-c3ccccc3O)cc3ccccc23)CC1` [Compound 3, Isobutyl 4-(3-(2-hydroxyphenyl)isoquinolin-1-yl)piperazine-1-carboxylate] gave an IC50 (NaV1.8 [1]) greater than 15000 nM.
With `CC(C)COC(=O)N1CCN(c2nc(-c3ccccc3C(F)F)cc3ccccc23)CC1` [Compound 4, Isobutyl 4-(3-(2-(difluoromethyl)phenyl)isoquinolin-1-yl)piperazine-1-carboxylate] the IC50 (NaV1.8 [1]) was greater than 15000 nM.
For `NCC1(CC(=O)O)CCCCC1` [Gabapentin], the “share of patients in whom it works” value (neuropathic pain) is listed as 60%.
In the case of `NC1=N[C@H](O)[C@H]2[C@H]3O[C@]4(O)O[C@@H]([C@@H](O)[C@@]2(N1)[C@@H]4O)[C@]3(O)CO` [TTX, tetrodotoxin], the IC50 (NaV1.3) is given as 15 nM, the IC50 (NaV1.8 [2]) is given as greater than 50000 nM and the IC50 (NaV1.6) is given as 6 nM. The IC50 (NaV1.1) was 10 nM, the IC50 (NaV1.9) was 1000 nM and the IC50 (NaV1.2) was 10 nM.
